According to the NIST ThermoML archive (doi:10.1016/j.tca.2010.06.014):
“And” between values parts separate entries of the source, which are not always exact repeats. Identical values can stand only once.

Settings: Liquid, DSC

O=[N+]([O-])OCC(CO[N+](=O)[O-])O[N+](=O)[O-] [nitroglycerin]
Settings | vapor or sublimation pressure
298.15 K | 7e-05 kPa and 7.1e-05 kPa
303.15 K | 0.00014 kPa and 0.000137 kPa
313.15 K | 0.00046 kPa and 0.000462 kPa
323.15 K | 0.0014 kPa and 0.001402 kPa
333.15 K | 0.00387 kPa and 0.003866 kPa
343.15 K | 0.00981 kPa and 0.009811 kPa
353.15 K | 0.02313 kPa
363.15 K | 0.05111 kPa
373.15 K | 0.1066 kPa
383.15 K | 0.211 kPa
393.15 K | 0.3988 kPa
403.15 K | 0.7228 kPa
413.15 K | 1.261 kPa
423.15 K | 2.127 kPa
433.15 K | 3.475 kPa
443.15 K | 5.519 kPa
453.15 K | 8.539 kPa
463.15 K | 12.9 kPa
473.15 K | 19.06 kPa
483.15 K | 27.59 kPa
493.15 K | 39.2 kPa
503.15 K | 54.73 kPa
513.15 K | 75.19 kPa
523.15 K | 101.77 kPa
